In the NIST ThermoML archive (doi:10.1021/acs.jced.6b00688):

Test: xn = mol fraction of the nth substance listed
Conditions: 100 kPa, Liquid; for viscosity: Falling or rolling sphere viscometry; for mass density: Vibrating tube method

OCC1CCCCC1 [cyclohexylmethanol] + CC1CCCCC1
Conditions	mass density [kg/m3]	viscosity [mPa·s]
293.15 K, x2 = 0.0998	914.04	22.56
293.15 K, x2 = 0.1996	898.07	12.82
293.15 K, x2 = 0.2999	881.82	7.902
293.15 K, x2 = 0.3998	865.56	4.953
293.15 K, x2 = 0.5004	848.97	3.225
293.15 K, x2 = 0.6007	832.61	2.164
293.15 K, x2 = 0.6997	816.64	1.555
293.15 K, x2 = 0.7984	800.82	1.159
293.15 K, x2 = 0.9012	784.55	0.891
298.15 K, x2 = 0.0998	910.42	17.67
298.15 K, x2 = 0.1996	894.34	10.28
298.15 K, x2 = 0.2999	877.99	6.5
298.15 K, x2 = 0.3998	861.58	4.176
298.15 K, x2 = 0.5004	844.91	2.832
298.15 K, x2 = 0.6007	828.51	1.92
298.15 K, x2 = 0.6997	812.48	1.407
298.15 K, x2 = 0.7984	796.58	1.065
298.15 K, x2 = 0.9012	780.24	0.817
303.15 K, x2 = 0.0998	906.77	14.09
303.15 K, x2 = 0.1996	890.57	8.368
303.15 K, x2 = 0.2999	874.13	5.421
303.15 K, x2 = 0.3998	857.62	3.567
303.15 K, x2 = 0.5004	840.88	2.446
303.15 K, x2 = 0.6007	824.38	1.715
303.15 K, x2 = 0.6997	808.29	1.279
303.15 K, x2 = 0.7984	792.32	0.98
303.15 K, x2 = 0.9012	775.91	0.769
308.15 K, x2 = 0.0998	903.08	11.37
308.15 K, x2 = 0.1996	886.77	6.888
308.15 K, x2 = 0.2999	870.24	4.567
308.15 K, x2 = 0.3998	853.63	3.075
308.15 K, x2 = 0.5004	836.92	2.155
308.15 K, x2 = 0.6007	820.24	1.542
308.15 K, x2 = 0.6997	804.07	1.167
308.15 K, x2 = 0.7984	788.03	0.905
308.15 K, x2 = 0.9012	771.56	0.718
313.15 K, x2 = 0.0998	899.36	9.257
313.15 K, x2 = 0.1996	882.93	5.729
313.15 K, x2 = 0.2999	866.31	3.884
313.15 K, x2 = 0.3998	849.61	2.672
313.15 K, x2 = 0.5004	832.82	1.912
313.15 K, x2 = 0.6007	816.06	1.393
313.15 K, x2 = 0.6997	799.82	1.069
313.15 K, x2 = 0.7984	783.71	0.839
313.15 K, x2 = 0.9012	767.17	0.672
318.15 K, x2 = 0.0998	895.6	7.638
318.15 K, x2 = 0.1996	879.05	4.813
318.15 K, x2 = 0.2999	862.35	3.332
318.15 K, x2 = 0.3998	845.56	2.34
318.15 K, x2 = 0.5004	828.69	1.706
318.15 K, x2 = 0.6007	811.86	1.264
318.15 K, x2 = 0.6997	795.54	0.983
318.15 K, x2 = 0.7984	779.36	0.779
318.15 K, x2 = 0.9012	762.76	0.631
323.15 K, x2 = 0.0998	891.81	6.35
323.15 K, x2 = 0.1996	875.15	4.082
323.15 K, x2 = 0.2999	858.35	2.882
323.15 K, x2 = 0.3998	841.47	2.064
323.15 K, x2 = 0.5004	824.52	1.539
323.15 K, x2 = 0.6007	807.62	1.152
323.15 K, x2 = 0.6997	791.23	0.907
323.15 K, x2 = 0.7984	774.99	0.726
323.15 K, x2 = 0.9012	758.33	0.594
328.15 K, x2 = 0.0998	887.97	5.322
328.15 K, x2 = 0.1996	871.24	3.491
328.15 K, x2 = 0.2999	854.31	2.512
328.15 K, x2 = 0.3998	837.35	1.831
328.15 K, x2 = 0.5004	820.32	1.379
328.15 K, x2 = 0.6007	803.35	1.054
328.15 K, x2 = 0.6997	786.89	0.839
328.15 K, x2 = 0.7984	770.58	0.679
328.15 K, x2 = 0.9012	753.86	0.561
333.15 K, x2 = 0.0998	884.09	4.526
333.15 K, x2 = 0.1996	867.26	3.011
333.15 K, x2 = 0.2999	850.23	2.204
333.15 K, x2 = 0.3998	833.14	1.634
333.15 K, x2 = 0.5004	816.09	1.25
333.15 K, x2 = 0.6007	799.05	0.967
333.15 K, x2 = 0.6997	782.43	0.778
333.15 K, x2 = 0.7984	766.13	0.637
333.15 K, x2 = 0.9012	749.37	0.531

OCC1CCCCC1 [cyclohexylmethanol] + CCCCCCCCCCCC
Conditions	mass density [kg/m3]	viscosity [mPa·s]
293.15 K, x2 = 0.1014	898.17	18.36
293.15 K, x2 = 0.1991	872.04	9.786
293.15 K, x2 = 0.299	849.06	6.177
293.15 K, x2 = 0.3997	828.81	4.307
293.15 K, x2 = 0.4992	811.3	3.223
293.15 K, x2 = 0.6005	795.57	2.542
293.15 K, x2 = 0.7008	781.83	2.087
293.15 K, x2 = 0.7986	769.9	1.809
293.15 K, x2 = 0.8996	758.73	1.594
298.15 K, x2 = 0.1014	894.59	14.59
298.15 K, x2 = 0.1991	868.46	7.99
298.15 K, x2 = 0.299	845.44	5.179
298.15 K, x2 = 0.3997	825.18	3.688
298.15 K, x2 = 0.4992	807.71	2.813
298.15 K, x2 = 0.6005	791.92	2.251
298.15 K, x2 = 0.7008	778.16	1.873
298.15 K, x2 = 0.7986	766.22	1.633
298.15 K, x2 = 0.8996	755.05	1.447
303.15 K, x2 = 0.1014	890.99	11.73
303.15 K, x2 = 0.1991	864.86	6.621
303.15 K, x2 = 0.299	841.79	4.403
303.15 K, x2 = 0.3997	821.5	3.197
303.15 K, x2 = 0.4992	804.02	2.479
303.15 K, x2 = 0.6005	788.23	2.01
303.15 K, x2 = 0.7008	774.47	1.69
303.15 K, x2 = 0.7986	762.53	1.481
303.15 K, x2 = 0.8996	751.37	1.321
308.15 K, x2 = 0.1014	887.35	9.573
308.15 K, x2 = 0.1991	861.23	5.545
308.15 K, x2 = 0.299	838.08	3.779
308.15 K, x2 = 0.3997	817.79	2.795
308.15 K, x2 = 0.4992	800.32	2.201
308.15 K, x2 = 0.6005	784.52	1.806
308.15 K, x2 = 0.7008	770.76	1.532
308.15 K, x2 = 0.7986	758.82	1.351
308.15 K, x2 = 0.8996	747.67	1.211
313.15 K, x2 = 0.1014	883.69	7.9
313.15 K, x2 = 0.1991	857.57	4.691
313.15 K, x2 = 0.299	834.37	3.271
313.15 K, x2 = 0.3997	814.07	2.461
313.15 K, x2 = 0.4992	796.59	1.966
313.15 K, x2 = 0.6005	780.79	1.631
313.15 K, x2 = 0.7008	767.03	1.395
313.15 K, x2 = 0.7986	755.09	1.237
313.15 K, x2 = 0.8996	743.96	1.115
318.15 K, x2 = 0.1014	879.99	6.588
318.15 K, x2 = 0.1991	853.91	4.005
318.15 K, x2 = 0.299	830.77	2.854
318.15 K, x2 = 0.3997	810.31	2.183
318.15 K, x2 = 0.4992	792.83	1.767
318.15 K, x2 = 0.6005	777.04	1.48
318.15 K, x2 = 0.7008	763.28	1.276
318.15 K, x2 = 0.7986	751.35	1.138
318.15 K, x2 = 0.8996	740.24	1.031
323.15 K, x2 = 0.1014	876.25	5.525
323.15 K, x2 = 0.1991	850.16	3.447
323.15 K, x2 = 0.299	827.01	2.507
323.15 K, x2 = 0.3997	806.53	1.947
323.15 K, x2 = 0.4992	789.05	1.594
323.15 K, x2 = 0.6005	773.26	1.348
323.15 K, x2 = 0.7008	759.51	1.171
323.15 K, x2 = 0.7986	747.58	1.05
323.15 K, x2 = 0.8996	736.5	0.957
328.15 K, x2 = 0.1014	872.47	4.696
328.15 K, x2 = 0.1991	846.36	2.99
328.15 K, x2 = 0.299	823.2	2.216
328.15 K, x2 = 0.3997	802.71	1.746
328.15 K, x2 = 0.4992	785.24	1.446
328.15 K, x2 = 0.6005	769.45	1.233
328.15 K, x2 = 0.7008	755.71	1.079
328.15 K, x2 = 0.7986	743.79	0.973
328.15 K, x2 = 0.8996	732.74	0.891
333.15 K, x2 = 0.1014	868.64	3.987
333.15 K, x2 = 0.1991	842.52	2.614
333.15 K, x2 = 0.299	819.35	1.972
333.15 K, x2 = 0.3997	798.87	1.574
333.15 K, x2 = 0.4992	781.41	1.318
333.15 K, x2 = 0.6005	765.62	1.132
333.15 K, x2 = 0.7008	751.89	0.997
333.15 K, x2 = 0.7986	739.98	0.904
333.15 K, x2 = 0.8996	728.97	0.832
